Data from ChEMBL document CHEMBL1148664, “Synthesis and biological evaluation of rhodanine derivatives as PRL-3 inhibitors” (Bioorg Med Chem Lett, 2006).
pIC50: −log10 of the molar value. Calls of active or inactive are those of the source. No cut-off for these calls is given here.

tested on: B16-F10; experiment: Ability to reduce the invasiveness of tumor in B16F10 cells; format: functional, cell-based; conditions: Mus musculus

Row | Structure (SMILES) | Activity
1 | O=C1NC(=S)S/C1=C\c1cc2ccccc2cc1OCc1c(F)cccc1Cl | Active
2 | O=C1NC(=S)S/C1=C\c1cc(Br)ccc1OCc1ccccc1Br | Active

biological target: T1, Protein tyrosine phosphatase type IVA 3 (Homo sapiens, UniProt O75365); experiment: Inhibition of human recombinant PRL-3; conditions: not given
T1 sequence (O75365 whole entry): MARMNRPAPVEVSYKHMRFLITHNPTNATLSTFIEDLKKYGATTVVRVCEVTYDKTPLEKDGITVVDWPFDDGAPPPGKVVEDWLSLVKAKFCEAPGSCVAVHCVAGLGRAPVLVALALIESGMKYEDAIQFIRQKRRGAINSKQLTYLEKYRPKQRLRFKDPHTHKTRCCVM

Row | Structure (SMILES) | pIC50
3 | N=C(N)c1ccc(OCCCCCOc2ccc(C(=N)N)cc2)cc1 [PENTAMIDINE] | 4.27
4 | O=C1NC(=S)S/C1=C\c1cc(Br)ccc1O | 5.02

biological target: T1, Protein tyrosine phosphatase type IVA 3; experiment: Inhibition of human recombinant PRL-3 up to 50 uM; conditions: not given

Row | Structure (SMILES) | inhibition
5 | O=C1NC(=S)S/C1=C\c1ccccc1OCc1ccccc1 | inactive
6 | O=C1NC(=S)S/C1=C\c1cc(Br)ccc1OCc1cccnc1 | inactive
7 | CS(=O)(=O)Oc1ccc(Br)cc1/C=C1\SC(=S)NC1=O | inactive
8 | O=Cc1cc(Br)ccc1O | inactive
9 | O=C1NC(=O)/C(=C/c2cc(Br)ccc2OCc2ccccc2)S1 | inactive
10 | CN1C(=O)/C(=C/c2cc(Br)ccc2OCc2ccccc2)SC1=S | inactive
